Measurements as given in patent publication US11926628B2 (Gilead Sciences, Inc., priority 2021, dated 2024).

Columns and labels:
human DGKα = human DGKα (Homo sapiens (Human), UniProt P23743); assay: DGKα Biochemical Activity Assay (ADP-Glo); conditions: recombinant DGKα 1 nM, 100 μM ATP, 18:1 DAG/POPS/octylglucoside micelles, 1 hour at 25° C.; geometric mean; read-out: HTBS DGKa 1X ATP KM IC50
Outline: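 Recombinant DGKα (1 nM final) was preincubated with compound for 15 min, then reacted for 1 h at 25 °C with 100 μM ATP and octylglucoside micelles of 0.85 mM 18:1 DAG and 6.75 mM POPS in pH 7.2 MOPS with 5 mM MgCl2. ADP formed was read by ADP-Glo luminescence. IC50 came from four-parameter fits normalized to DMSO and 50 μM CU3, and values were geometric means.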

[1] = test system: Jurkat NFκB-luciferase cells; assay: Jurkat NFκB-Luciferase Assay; assay type: cell-based; conditions: Homo sapiens; Jurkat NFκB-luciferase cells activated with anti-CD3 antibody (OKT3), 2.5 hrs at 37° C.; geometric mean; read-out: DGK NFKb Luciferase EC50
Outline: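 Jurkat NFκB-luciferase reporter cells stimulated on plate-bound anti-CD3 (5 ug/ml coating) with compound, 2.5 hrs at 37° C then 30 min at 25° C; luminescence read with One-Glo Ex. Normalized to DMSO (basal) and 1 micromolar compound (maximum) controls; EC50 from four-parameter fit, geometric mean across experiments.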

Chain of human DGKα (P23743 whole entry): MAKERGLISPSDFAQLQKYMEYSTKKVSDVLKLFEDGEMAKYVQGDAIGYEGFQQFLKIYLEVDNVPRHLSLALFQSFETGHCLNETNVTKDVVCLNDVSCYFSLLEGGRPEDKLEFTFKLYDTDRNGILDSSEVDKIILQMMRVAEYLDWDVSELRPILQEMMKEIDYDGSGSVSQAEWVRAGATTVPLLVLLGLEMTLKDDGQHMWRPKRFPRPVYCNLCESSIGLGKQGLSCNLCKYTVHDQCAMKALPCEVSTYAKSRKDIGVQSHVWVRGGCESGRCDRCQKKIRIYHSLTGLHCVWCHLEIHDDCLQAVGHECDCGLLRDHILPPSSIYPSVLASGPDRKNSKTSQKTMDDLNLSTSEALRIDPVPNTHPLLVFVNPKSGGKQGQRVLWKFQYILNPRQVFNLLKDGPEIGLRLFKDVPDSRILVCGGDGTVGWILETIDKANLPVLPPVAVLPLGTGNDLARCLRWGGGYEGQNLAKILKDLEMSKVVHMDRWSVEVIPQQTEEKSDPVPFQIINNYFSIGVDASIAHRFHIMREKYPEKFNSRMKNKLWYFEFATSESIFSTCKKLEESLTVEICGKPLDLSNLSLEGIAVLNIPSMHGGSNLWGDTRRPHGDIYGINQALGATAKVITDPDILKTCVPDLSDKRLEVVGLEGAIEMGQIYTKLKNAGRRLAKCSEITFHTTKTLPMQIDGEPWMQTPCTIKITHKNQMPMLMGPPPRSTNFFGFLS

| Compound | IC50 (human DGKα) | EC50 [1] |
| --- | --- | --- |
| CN(c1cccc(C#CC(C)(C)O)c1)c1nc2nncn2c2ncc(F)cc12 [Example 153] | 29.4 nM | 45.2 nM |
| Cc1nnc2nc(N3CCCc4c(C#CC(C)(C)O)cccc43)c3ccc(C(F)(F)F)nc3n12 [Example 145, 2-methyl-4-(1-(9-methyl-2-(trifluoromethyl)pyrido[3,2-e][1,2,4]triazolo[4,3-a]pyrimidin-5-yl)-1,2,3,4-tetrahydroquinolin-5-yl)but-3-yn-2-ol] | 59.6 nM | 8.73 nM |
| Fc1cnc2c(c1)c(N1CCCc3c(C#CC4(C(F)(F)F)CC4)cccc31)nc1nncn12 [Example 150, 11-fluoro-8-[5-[2-[1-(trifluoromethyl)cyclopropyl]ethynyl]-3,4-dihydro-2H-quinolin-1-yl]-2,4,5,7,13-pentazatricyclo[7.4.0.02,6]trideca-1(13),3,5,7,9,11-hexaene] | 8.44 nM | 2.18 nM |
| CN(c1cc(F)cc(C#CC(C)(C)C)c1)c1nc2nnnn2c2ccc(F)cc12 [Example 15] | 42.9 nM | 1.79 nM |
| Cc1nnc2nc(N3CCOCc4c(C#CC(C)(C)C#N)cccc43)c3cc(F)cnc3n12 [Example 136] | 3.35 nM | 10.4 nM |
| Cc1ccc2c(N(C)c3cccc(C#CC(C)(C)C)c3)nc3nncn3c2n1 [Example 122, N-(3-(3,3-dimethylbut-1-yn-1-yl)phenyl)-N,2-dimethylpyrido[3,2-e][1,2,4]triazolo[4,3-a]pyrimidin-5-amine] | 42.7 nM | 4.15 nM |
| CCN(c1cccc(-c2ccc(C3CC3)nc2)c1)c1nc2nncn2c2cnccc12 [Example 58, N-[3-(6-cyclopropyl-3-pyridyl)phenyl]-N-ethyl-2,4,5,7,12-pentazatricyclo[7.4.0.02,6]trideca-1(13),3,5,7,9,11-hexaen-8-amine] | 219 nM | 28.9 nM |
| FC(F)(F)C1(C#Cc2cccc3c2CCCN3c2nc3nncn3c3cnccc23)CC1 [Example 83, 8-[5-[2-[1-(trifluoromethyl)cyclopropyl]ethynyl]-3,4-dihydro-2H-quinolin-1-yl]-2,4,5,7,12-pentazatricyclo[7.4.0.02,6]trideca-1(13),3,5,7,9,11-hexaene] | 14.2 nM | 1.76 nM |
| CN(c1cccc(-c2ccc(C3CC3)cc2)c1)c1nc2nncn2c2cnccc12 [Example 61, N-[3-(4-cyclopropylphenyl)phenyl]-N-methyl-2,4,5,7,12-pentazatricyclo[7.4.0.02,6]trideca-1(13),3,5,7,9,11-hexaen-8-amine] | 22.8 nM | 0.543 nM |
| CN(c1cncc(-c2ccc(C3CC3)cc2)n1)c1nc2nncn2c2cnccc12 [Example 57, N-[6-(4-cyclopropylphenyl)pyrazin-2-yl]-N-methyl-2,4,5,7,12-pentazatricyclo[7.4.0.02,6]trideca-1(13),3,5,7,9,11-hexaen-8-amine] | 130 nM | 9.91 nM |
| CN(c1cc(F)cc(C#CC2(C(F)(F)F)CC2)c1)c1nc2cncn2c2cc(Cl)ccc12 [Example 2, 8-chloro-N-[3-fluoro-5-[2-[1-(trifluoromethyl)cyclopropyl]ethynyl]phenyl]-N-methyl-imidazo[1,5-a]quinazolin-5-amine] | 2310 nM | 5.11 nM |
| Cc1ccc2c(N(C)c3cccc(-c4ccc(C5CC5)cc4)c3)nc3nncn3c2n1 [Example 123, N-(4′-cyclopropyl-[1,1′-biphenyl]-3-yl)-N,2-dimethylpyrido[3,2-e][1,2,4]triazolo[4,3-a]pyrimidin-5-amine] | 12.7 nM | 2.05 nM |
| CN(c1cccc(Br)c1)c1nc2nnnn2c2cc(Cl)ccc12 [Example 11, N-(3-bromophenyl)-8-chloro-N-methyltetrazolo[1,5-a]quinazolin-5-amine] | 430 nM | 36.4 nM |
